The results in this text go back to paper PMC3705412, “PTP1B Inhibitory and Anti-Inflammatory Effects of Secondary Metabolites Isolated from the Marine-Derived Fungus Penicillium sp. JF-55” (Marine Drugs, 2013).

The structures appear in SMILES notation.

Broadly, the IC50 is the concentration needed to halve the response being measured.

Common to all, as to format: cell-based, murine (C57BL/6 mice)
The subject of assay [1] is iNOS-derived NO production in murine peritoneal macrophages. In words: Nitrite (NO) production in LPS-stimulated macrophages, Griess reaction. The note with it: Mus musculus, Peritoneal macrophage; pre-treated 12 h, LPS 1 μg/mL 18 h. How it is done:
The expression of pro-inflammatory enzymes, including COX-2 and iNOS, plays an important role in immune-activated macrophages via the production of COX-2-derived PGE2 and iNOS-derived NO [20, 21]. To investigate the effects of compounds on iNOS-derived NO and COX-2-derived PGE2 production, and iNOS and COX-2 expression in LPS-stimulated macrophages, murine peritoneal macrophages were stimulated with LPS (1 μg/mL) for 18 h in the presence or absence of non-cytotoxic concentrations of compounds 1–3 (Figure S1). […] The finding that penstyrylpyrone (1) suppressed LPS-induced pro-inflammatory mediators, such as NO, PGE2, iNOS, and COX-2, led further investigation of the effects of penstyrylpyrone (1) on LPS-induced TNF-α and IL-1β production, which are other pro-inflammatory mediators.
C57BL/6 mice were purchased from Orient Bio Co. (Sungnam, Kyung-Kido, Korea). TG-elicited peritoneal macrophages were harvested four days after intraperitoneal (i.p.) injection of 3 mL of TG [37]. Peritoneal lavage was performed using 8 mL of Hanks’ Balanced Salt Solution containing 10 U/mL heparin. The cells were distributed in Roswell Park Memorial Institute medium (RPMI) supplemented with 10% heat-inactivated FBS, in 6-well tissue culture plates (5 × 10^6 cells/mL).
(§1) The production of nitrite, a stable end product of NO oxidation, was used as a measure of iNOS activity. The nitrite present in the conditioned medium was determined using a method based on the Griess reaction.
For orientation: Nitrite, measured by Griess reagent, commonly stands in for NO production.

Assay [2] deals with HO-1. In words: Effect of the HO-1 inhibitor SnPP on the inhibition of pro-inflammatory mediators in LPS-stimulated macrophages. As to conditions: 40 μM pre-treatment 12 h, SnPP 50 μM, LPS 1 μg/mL 18 h. How it is done: Figure 8 The effects of SnPP on the inhibition of nitrite production (A), PGE2 production (B), NF-κB DNA-binding activity (C), TNF-α production (D), and IL-1β production (E) by penstyrylpyrone (1) pre-treatment of LPS-stimulated murine peritoneal macrophages. Murine peritoneal macrophages were pre-treated for 12 h with penstyrylpyrone (1) (40μM), in the presence or absence of SnPP (50 μM) and stimulated for 18 h with LPS (1μg/mL). The nitrite (A), PGE2 (B), TNF-α (D), and IL-1β (E) concentrations and nuclear NF-κB DNA-binding activity (C) were investigated as described in Materials and Methods. […]
as §1
The level of PGE2, TNF-α or IL-1β present in each sample was determined using a commercially available kit from R & D Systems. […] A substrate solution was added, and the intensity of the color produced, which was measured at 450 nm (the correction wavelength was set at 540 nm or 570 nm), was proportional to the amount of PGE2, TNF-α or IL-1β present.
The DNA-binding activity of NF-κB in the nuclear extracts was measured using the TransAM kit (Active Motif, Carlsbad, CA, USA) according to the manufacturer’s instructions.

Assay [3] concerns IL-1β production in murine peritoneal macrophages. The experiment in a line: IL-1β production in LPS-stimulated macrophages, ELISA. As to conditions: Mus musculus, Peritoneal macrophage; pre-treated 12 h, LPS 1 μg/mL 18 h. On the procedure:
C57BL/6 mice were purchased from Orient Bio Co. (Sungnam, Kyung-Kido, Korea). TG-elicited peritoneal macrophages were harvested four days after intraperitoneal (i.p.) injection of 3 mL of TG [37]. Peritoneal lavage was performed using 8 mL of Hanks’ Balanced Salt Solution containing 10 U/mL heparin. The cells were distributed in Roswell Park Memorial Institute medium (RPMI) supplemented with 10% heat-inactivated FBS, in 6-well tissue culture plates (5 × 10^6 cells/mL). The level of PGE2, TNF-α or IL-1β present in each sample was determined using a commercially available kit from R & D Systems. The assay was performed according to the manufacturer’s instructions. Briefly, murine peritoneal macrophages were cultured in 24-well plates, pre-incubated for 12 h with different concentrations of compounds 1–3, and then stimulated for 18 h with LPS. The cell culture supernatants were then immediately collected after treatment and centrifuged at 13,000× g for 2 min to remove particulate matter. The medium was added to a 96-well plate pre-coated with affinity-purified PGE2-specific polyclonal antibodies or the medium was added to a 96-well plate pre-coated with affinity-purified polyclonal antibodies that were specific to mouse TNF-α or IL-1β. An enzyme-linked polyclonal antibody specific for PGE2, mouse TNF-α or IL-1β was added to the wells for 20 h, followed by a final wash to remove any unbound antibody-enzyme reagent. A substrate solution was added, and the intensity of the color produced, which was measured at 450 nm (the correction wavelength was set at 540 nm or 570 nm), was proportional to the amount of PGE2, TNF-α or IL-1β present.
Background: ELISA stands for enzyme-linked immunosorbent assay.

Consider `COc1cc(/C=C/c2ccccc2)oc(=O)c1C` [Penstyrylpyrone (1), penstyrylpyrone], for which the half-maximal inhibitory concentration (IC50) in assay [1] was 12.3 µM; in assay [3] it was 13.5 µM. Further, in assay [2], the “Suppressive effects on LPS-stimulated NO, PGE2, TNF-α, IL-1β production and NF-κB DNA-binding activity in presence of SnPP” value is reported as “partially reversed by SnPP”.
